“And” between values parts separate entries of the source, which are not always exact repeats. Identical values can stand only once. Like-named read-outs stand apart in the source and are kept apart here.
Tests used:
Format in all cases: biochemical
FIH [1] = target: T1, FIH (Homo sapiens, UniProt Q9NWT6); test: Rapid quench-flow, FIH pre-steady-state product and succinate formation; conditions: for Rapid quench-flow kproduct / Rapid quench-flow ksuccinate: 0.5 mM apo-FIH, 0.4 mM Fe(II), 5 mM 2OG, 1 mM substrate, 50 mM HEPES pH 7.5, O2-saturated buffer 1:1, 5 °C, quenched with 1% CF3CO2H; for Rapid quench-flow kproduct: hydroxylation by MALDI-TOF-MS, 1–3 separate experiments; for Rapid quench-flow ksuccinate: succinate by LC-MS
T1 construct: Full-length recombinant FIH, two- and three-consensus ankyrin repeats (2CA and 3CA) were produced as described; His6 (cleaved yes); made in house; host or cells: Escherichia coli BL21(DE3)
Procedure: Rapid quench-flow experiments were performed using the same conditions and preparation of the assay mixture as used in stopped-flow experiments. Rapid quench-flow equipment (TgK Scientific Ltd.) in an anaerobic glove box was used for the experiments. Samples were quenched with 1% CF3CO2H and analyzed using MALDI-TOF-MS (peptide hydroxylation) as described above or liquid chromatography-mass spectrometry (LC-MS, for succinate production). For LC-MS, chromatographic separation was performed at 50 °C using a Waters ACQUITY BEH Amide 1.7-μm, 2.1 × 100-mm column on a Waters ACQUITY^TM ultraperformance liquid chromatography system (Waters Corp., Milford, MA). The following eluents were used: mobile phase A: 10% H2O, 90% acetonitrile (v/v), 10 mM ammonium formate; mobile phase B: 50% H2O, 50% acetonitrile (v/v), 10 mM ammonium formate. The elution gradient was 0–7.0 min linear from 10 to 30% B, and 7.0–9.0 min at 10% B for re-equilibration of the column. A constant flow rate of 0.4 ml/min was used. Analytes were detected in negative ionization mode using single reaction monitoring on a Quattro triple quadrupole mass spectrometer (Waters) with a cone voltage of 15 V and a capillary voltage of 3.0 kV. The desolvation temperature was set to 250 °C, and the source temperature was set to 120 °C.
FIGURE 9. Rapid quench-flow experiments showing FIH-catalyzed hydroxylation of HIF-1/2α CAD and ARD substrates. Reaction mixtures containing anaerobic 0.5 mM apo-FIH, 0.4 mM Fe(II), 5 mM 2OG, 1 mM peptide in HEPES 50 mM (pH 7.5) were rapidly mixed with O2-saturated buffer at 5 °C in a 1:1 ratio and then quenched with 1% CF3CO2H at defined time points. The data were fitted with the function, y = a·(1 − exp(−bx)) + c. Hydroxylation levels were assessed by MALDI-TOF-MS. A, hydroxylation of HIF-1α CAD, 1CA, and tankyrase-1 peptide substrates (19- and 20-mers); B, hydroxylation of HIF-1α, HIF-2α, and tankyrase-1 35-mer peptide substrates; C, hydroxylation of 1CA, 2CA, and 3CA. Data plotted were cumulatively acquired over the course of 1–3 separate experiments.

FIH [2] = target: T1, FIH; test: Steady-state kinetics of FIH-catalyzed peptide/protein hydroxylation (MALDI-TOF-MS or LC-MS); conditions: for Km / kcat^app: 50 μM Fe(II), 1 mM L-ascorbate; for kcat^app: MALDI-TOF-MS or LC-MS; for 2OG concentration above which substrate inhibition was observed: FIH steady-state assays with the named CAD peptide
Procedure: (§1) Enzymatic assays were conducted as described ([46], [47]). Unless otherwise stated, the assay mixture typically contained 5 μM FIH, 500 μM substrate, 500 μM 2OG, 1 mM L-ascorbate, and 50 μM Fe(NH4)2(SO4)2 or 4 μM PHD2, 100 μM substrate, 300 μM 2OG, 4 mM L-ascorbate, and 50 μM Fe(NH4)2(SO4)2. For HIF-1α CODD19-mer, the background levels of methionine oxidation resulting from assay conditions were subtracted based on non-enzymatic controls ([48]).
The O2 dependence of FIH-catalyzed reactions was determined by conducting enzymatic assays in an “In vivo 500 Hypoxia Workstation” (Ruskinn) using buffers pre-equilibrated under different pO2 values for 24 h. The O2 dependence of PHD2-catalyzed reactions was determined by conducting enzymatic assays in sealed glass vials with variable N2/O2 contents ([42]). Reactions were stopped by spotting samples onto a matrix-assisted laser desorption/ionization-time of flight mass spectrometry (MALDI-TOF-MS) target plate and immediately mixing with α-cyano-4-hydroxycinnamic acid matrix. Hydroxylation levels were assessed by MALDI-TOF-MS as described ([46]).
Samples obtained from FIH kinetic assays with 2CA and 3CA were diluted to a substrate concentration of 5 μM and then analyzed using a Waters® LCT Classic mass spectrometer by electrospray ionization in positive ion mode. An Agilent HP1100 LC system was used, and samples were run through a Phenomenex® Aeris Widepore 3.6-μm XB-C8 150 × 2.1-mm column at 0.5 ml/min in a gradient of phase A (95% H2O, 5% CH3CN, 0.01% formic acid) to phase B (95% CH3CN, 5% H2O, 0.01% formic acid). The LC/MS used the following method: 0–1.5 min, 100% A and then 1.5–12 min linear gradient from 0 to 100% B, 12–14 min 100% B, and 15.0–19.0 min 100% A for re-equilibration of the column. Data were collected and analyzed using MassLynx version 4.0.

PHD2 = target: T2, PHD2 (Homo sapiens, UniProt Q9GZT9); test: Time course of PHD2-catalyzed peptide hydroxylation; conditions: 4 μM PHD2, 100 μM peptide, 50 μM Fe(II), 300 μM 2OG, 1 mM L-ascorbate, 50 mM HEPES pH 7.5, 37 °C, atmospheric O2; MALDI-TOF-MS; triplicate assays
T2 construct: The catalytic domain of PHD2 (residues 181–426) was purified as described; made in house
Procedure: as §1
FIGURE 3. PHD2- and FIH-catalyzed hydroxylation of HIF-1/2α peptide substrates. A, time course of HIF-1/2α CODD19-mer peptide hydroxylation; B, time course of HIF-1/2α NODD19-mer peptide hydroxylation. Conditions were as follows: 4 μM PHD2, 100 μM peptide, 50 μM Fe(II), 300 μM 2OG, 1 mM L-ascorbate in HEPES 50 mM (pH 7.5) were incubated at 37 °C at atmospheric O2. C, time course of HIF-1α CAD 19- and 35-mer peptide hydroxylation. D, time course of HIF-2α CAD 19- and 35-mer peptide hydroxylation. Conditions were as follows: 5 μM FIH, 500 μM peptide, 50 μM Fe(II), 500 μM 2OG, 1 mM L-ascorbate in HEPES 50 mM (pH 7.5) were incubated at 37 °C at atmospheric O2. The different hydroxylation levels were analyzed by MALDI-TOF-MS. Error bars, S.D. of triplicate assays.

[3] = FIH with the named substrate, 0.1–5 μM FIH, 2OG varied, 50 mM HEPES pH 7.5, 37 °C, MALDI-TOF-MS (LC-MS for 2CA, 3CA), triplicate assays, read-out: Km^app(2OG)
[4] = FIH, 0.1–5 μM FIH, substrate varied, 2OG fixed, 50 mM HEPES pH 7.5, 37 °C, MALDI-TOF-MS (LC-MS for 2CA, 3CA), triplicate assays, read-out: Km^app(peptide)

T1 sequence (Q9NWT6 whole entry): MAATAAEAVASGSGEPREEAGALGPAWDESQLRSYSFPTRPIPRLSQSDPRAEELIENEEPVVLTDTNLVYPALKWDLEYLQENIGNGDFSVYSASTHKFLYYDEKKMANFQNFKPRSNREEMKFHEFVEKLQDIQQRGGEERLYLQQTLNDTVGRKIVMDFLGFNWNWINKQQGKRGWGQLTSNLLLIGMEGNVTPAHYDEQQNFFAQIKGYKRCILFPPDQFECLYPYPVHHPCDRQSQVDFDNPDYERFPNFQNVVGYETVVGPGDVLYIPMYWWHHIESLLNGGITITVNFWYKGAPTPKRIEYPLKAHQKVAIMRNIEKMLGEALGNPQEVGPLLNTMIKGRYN
T2 sequence (Q9GZT9 181-426): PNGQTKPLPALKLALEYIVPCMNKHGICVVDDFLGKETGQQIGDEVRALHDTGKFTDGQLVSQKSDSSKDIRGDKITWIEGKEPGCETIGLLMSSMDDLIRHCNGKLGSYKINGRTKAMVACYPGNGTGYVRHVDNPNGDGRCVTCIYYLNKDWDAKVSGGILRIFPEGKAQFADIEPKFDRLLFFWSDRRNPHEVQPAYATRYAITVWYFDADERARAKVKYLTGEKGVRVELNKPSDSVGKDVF

| Sequence | Rapid quench-flow kproduct (FIH [1]) | Km (FIH [2]; [3]) [µM] | kcat^app (FIH [2]; FIH, 50 mM HEPES pH 7.5, 37 °C) [s⁻¹] | Km (FIH [2]; [4]) [µM] | substrate hydroxylation after 15 min (PHD2) [%] | Rapid quench-flow ksuccinate (FIH [1]) [s⁻¹] | product accumulation rate, fold faster than the reaction with HIF 35-mer substrates (FIH [1]; rapid quench-flow, 5 °C) [fold] | Rapid quench-flow kproduct (FIH [1]; listed as tnkrs-1_35mer) [s⁻¹] | product formation rate, fold faster than for the 20-mer (FIH [1]; rapid quench-flow, 5 °C) [fold] | Rapid quench-flow kproduct (FIH [1]; listed as CAD HIF-1α35-mer) [s⁻¹] | Km (FIH [2]; 5 μM FIH, peptide 500-1000 µM fixed, 2OG varied, Figure S3B, read-out: Km^app(2OG), fitting with a substrate inhibition model) [µM] | 2OG concentration above which substrate inhibition was observed (FIH [2]) [µM] |
| --- | --- | --- | --- | --- | --- | --- | --- | --- | --- | --- | --- | --- |
| GSHMGSDLGKKLLEAARAGQDDEVRILMANGADVAAKDKNGSTPLHLAARNGHLEVVKLLLEAGADVNAQDKFGKTAFDISIDNGNEDLAEILQ [3CA, recombinant three-consensus ankyrin repeat protein produced in Escherichia coli] | 0.051 s⁻¹ and 0.051 ± 0.001 s⁻¹ | 200 ± 60 | 0.6 ± 0.2 | 60 ± 15 | – | – | – | – | – | – | – | – |
| EELAQLAPTPGDAIISLDF [HIF-2α NODD, 19-mer fragment (398–416) of the HIF-2α N-terminal oxygen-dependent degradation domain, PHD2 substrate] | – | – | – | – | 20 | – | – | – | – | – | – | – |
| ELDLETLAPYIPMDGEDFQ [HIF-2α CODD, 19-mer fragment (523–541) of the HIF-2α C-terminal oxygen-dependent degradation domain, PHD2 substrate] | – | – | – | – | 90 | – | – | – | – | – | – | – |
| HLEVVKLLLEAGADVNAQDK [1CA20-mer] | 1.3 ± 0.2 s⁻¹ | 290 ± 50 | 1.6 ± 0.1 | 25 ± 7 | – | 0.8 ± 0.3 | ~10 | – | – | – | – | – |
| AAGYNNLEVAEYLLEHGADVNAQDKGGLIPLHNAA [tnkrs-1_35-mer, 35-mer fragment of tankyrase-1, ARD substrate of FIH] | 11 ± 3 s⁻¹ | 61 ± 7 | 3.0 ± 0.2 | 14 ± 4 | – | 10 ± 3 | – | 11 | ~7 | – | – | – |
| DESGLPQLTSYDCEVNAPIQGSRNLLQGEELLRAL [HIF-1α CAD35-mer] | 0.33 s⁻¹ | 110 ± 20 | 0.56 ± 0.04 | 180 ± 30 | – | 0.3 ± 0.1 | – | – | – | 0.33 ± 0.07 | 300 ± 100 | > 100 |
| SDKNGSTPLHLAARNGHLEVVKLLLEHGADVNAQDKWGKTAFDISIDNGNEDLAEILQ [2CA, recombinant two-consensus ankyrin repeat protein produced in Escherichia coli] | 0.5 ± 0.1 s⁻¹ | 110 ± 30 | 1.7 ± 0.2 | 16 ± 3 | – | – | – | – | – | – | – | – |
| ESYLLPELTRYDCEVNVPVLGSSTLLQGGDLLRAL [HIF-2α CAD35-mer] | 0.12 ± 0.01 s⁻¹ | 19 ± 6 | 0.049 ± 0.005 | 315 ± 40 | – | 0.11 ± 0.03 | – | – | – | – | – | > 700 |

From PMC4528135, “Kinetic Investigations of the Role of Factor Inhibiting Hypoxia-inducible Factor (FIH) as an Oxygen Sensor” (The Journal of Biological Chemistry, 2015)
